Structures are written as SMILES.

Experiment [1] has as its system PC-3. As to the kind of experiment: Anti-CSC activity against human PC-3 cells by soft agar assay. The experiment is classed as functional, cell-based.
In experiment [2] the test system is PC-3. As to the kind of experiment: Anti-CSC activity against human PC-3 cells by MTT assay. The experiment is classed as functional, cell-based. In general terms: Tetrazolium dyes change colour on reduction, which living cells bring about.
The test system of experiment [3] is DU-145. Nature of the experiment: Anti-CSC activity against human DU-145 cells by MTT assay. In kind it is functional, cell-based.
Experiment [4] has as its system MDA-MB-231. As to the kind of experiment: Anti-CSC activity against human MDA-MB-231 cells by soft agar assay. The experiment is classed as functional, cell-based.
In experiment [5] the test system is MDA-MB-231. Nature of the experiment: Anti-CSC activity against human MDA-MB-231 cells by MTT assay. In kind it is functional, cell-based.
The nature of experiment [6]: Selectivity ratio of IC50 for human hFOB1.19 cells to IC50 for human MG-63 cells.
In the next experiment the test system is HOS-TE85. As to the kind of experiment: Cytotoxicity against human MNNG/HOS cells incubated for 48 hrs by CCK-8 assay. The following applies: HOS-TE85, 48 h. The experiment is classed as functional, cell-based.
The test system of another experiment is MG-63. Nature of the experiment: Cytotoxicity against human MG-63 cells incubated for 48 hrs by CCK-8 assay. The following applies: MG-63, 48 h. The experiment is classed as functional, cell-based.
Experiment [7] in a line: Selectivity ratio of IC50 for […] to IC50 for human MG-63 cells.
Experiment [8] concerns PC-3. As to the kind of experiment: Anti-CSC activity against human PC-3 cells incubated for 1 week by alamarblue staining based soft agar method. The experiment is classed as functional, cell-based. The following applies: PC-3, 168 h. (In general: Resazurin is reduced to fluorescent resorufin, in cell work by metabolically active cells.)
For experiment [9], the system named is MDA-MB-231. As to the kind of experiment: Anti-CSC activity against human MDA-MB-231 cells incubated for 48 hrs by MTT assay. The experiment is classed as functional, cell-based. The following applies: MDA-MB-231, 48 h.
Experiment [10] concerns PC-3. Nature of the experiment: Anti-CSC activity against human PC-3 cells assessed as inhibition of sphere formation at 2.5 uM by phase-contrast microscopy relative to control. The experiment is classed as functional.
The nature of experiment [11]: Cytotoxicity against human PBMC by MTT assay. The experiment is classed as tissue-based.
The subject of experiment [12] is DU-145. Nature of the experiment: Anti-CSC activity against human DU145 cells incubated for 1 week with intermittent feeding of medium after day 3 by alamarblue staining based soft agar method. The experiment is classed as functional, cell-based.
Experiment [13] deals with PC-3. Nature of the experiment: Anti-CSC activity against human PC-3 cells assessed as inhibition of sphere formation at 25 nM by sphere assay relative to control. In kind it is functional.
The next experiment concerns T47D. As to the kind of experiment: Anti-CSC activity against human T47D cells incubated for 48 hrs by MTT assay. In kind it is functional, cell-based.
The next experiment deals with Homo sapiens. As to the kind of experiment: Anti-CSC activity in patient with pSTAT3-positive tumors assessed as overall survival time at 480 mg, po administered bid with interval of 12 hrs. In kind it is functional.
Experiment [14] has as its system MDA-MB-231. As to the kind of experiment: Anti-CSC activity against human MDA-MB-231 cells assessed as inhibition of sphere formation at 250 nM by phase-contrast microscopy. In kind it is functional.

Broadly, the IC50 is the concentration that inhibits the measured activity by half. Low readings indicate inhibition by little substance, high ones a need for much substance. As for `C=C(C)[C@H](CC=C(C)C)C[C@]12C[C@H](CC=C(C)C)C(C)(C)[C@](CC=C(C)C)(C(=O)C(C(=O)c3ccc(O)c(O)c3)=C1O)C2=O`, the IC50 with PC-3 [1] worked out at 3460 nM; in the experiment on PC-3 [2], 2860 nM; with DU-145 [3] it was 2870 nM; in the experiment on MDA-MB-231 [4] it was 2130 nM; in the experiment on MDA-MB-231 [5], 2430 nM.
For `Oc1ccc(/C=C/c2cc(O)cc(O)c2)cc1` [RESVERATROL], the “Ratio IC50” value in experiment [6] and in [7] was over 40 throughout. In addition, the figures for the IC50 with HOS-TE85 and with MG-63 were 20600 nM and 28600 nM, respectively.
As a reminder, the inhibition is how much of the control response was suppressed. As to `O=C(Cn1cc(COc2cccc3ccccc23)nn1)Nc1ccc(Cl)cc1`, the IC50 with PC-3 [8] was 2900 nM; in the experiment on MDA-MB-231 [9], 2160 nM; in [11], over 100000 nM. Further, in the experiment with PC-3 [10], the inhibition at 2.5 µM turned out to be 50%.
Regarding `N#Cc1c(NC(=O)CCl)sc2c1CCCC2`, the IC50 in the experiment on DU-145 [12] is 270 nM; in the experiment on T47D, 330 nM. Also, the inhibition at 0.025 µM in the experiment with PC-3 [13] was over 50%.
Consider `O=C(CCl)Nc1ccc2c(c1)CCC2`, for which the IC50 with DU-145 [12] came out at 1160 nM; in the experiment on MDA-MB-231 [9], 730 nM. The inhibition at 0.025 µM with PC-3 [13] was over 50%.
`CC(=O)c1cc2c(o1)C(=O)c1ccccc1C2=O` [NAPABUCASIN]: the Time with Homo sapiens worked out at 5.1 months.
In the case of `O=C(Cn1cc(COc2ccc3ccccc3c2)nn1)Nc1ccc(Cl)cc1`, the IC50 in the experiment on PC-3 [8] is 12100 nM; in the experiment on MDA-MB-231 [9], 1470 nM; in [11], over 100000 nM. The inhibition at 0.25 µM in the experiment with MDA-MB-231 [14] is over 50%.

For the origin of these results see ChEMBL document CHEMBL4715880, “Cancer Stem Cell (CSC) Inhibitors in Oncology-A Promise for a Better Therapeutic Outcome: State of the Art and Future Perspectives” (J Med Chem, 2020).
